Test results as given in publication PMC6256112, “Cannabinoid Receptor 2 Signalling Bias Elicited by 2,4,6-Trisubstituted 1,3,5-Triazines” (Frontiers in Pharmacology, 2018).
Read-outs that look alike come from different tables or passages of the source. Marks after values point to notes of the source that are not given here.

Tests used:
[1] = target: T1, hCB1 (Homo sapiens, UniProt P21554); experiment: Radioligand competition binding screen with [3H]-CP 55,940 on hCB1-expressing HEK membranes; details: for CB1 binding extent at 10 μM (%) (±SEM): 10 μM compound, displacement of 0.75 nM [3H]-CP 55,940; for CB2 selectivity over CB1 (in words): from CB1 binding at 10 μM versus CB2 affinity
T1 construct: expressed in transfected cells; host or cells: HEK (membranes)
T1 sequence (P21554 whole entry): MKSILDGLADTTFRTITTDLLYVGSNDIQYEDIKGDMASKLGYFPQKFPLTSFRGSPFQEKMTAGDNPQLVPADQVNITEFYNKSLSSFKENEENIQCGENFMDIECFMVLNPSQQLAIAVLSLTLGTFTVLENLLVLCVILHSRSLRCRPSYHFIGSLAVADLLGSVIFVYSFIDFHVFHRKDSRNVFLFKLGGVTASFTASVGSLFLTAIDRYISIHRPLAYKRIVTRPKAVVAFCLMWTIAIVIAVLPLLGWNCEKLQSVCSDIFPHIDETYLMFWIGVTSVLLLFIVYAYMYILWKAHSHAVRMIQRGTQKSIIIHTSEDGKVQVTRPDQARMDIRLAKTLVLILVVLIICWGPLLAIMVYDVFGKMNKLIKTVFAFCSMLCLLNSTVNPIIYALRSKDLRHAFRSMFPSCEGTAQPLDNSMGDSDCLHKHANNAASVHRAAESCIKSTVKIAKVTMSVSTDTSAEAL

[2] = target: T2, hCB2 (Homo sapiens, UniProt P34972); experiment: hCB2 internalisation assay (immunocytochemistry of surface receptor), HEK Flp-in hCB2 cells; assay type: cell-based; set-up: Emax: dose or concentration left out as unconfirmed
T2 construct: expressed in transfected cells; host or cells: HEK Flp-in
T2 sequence (P34972 whole entry): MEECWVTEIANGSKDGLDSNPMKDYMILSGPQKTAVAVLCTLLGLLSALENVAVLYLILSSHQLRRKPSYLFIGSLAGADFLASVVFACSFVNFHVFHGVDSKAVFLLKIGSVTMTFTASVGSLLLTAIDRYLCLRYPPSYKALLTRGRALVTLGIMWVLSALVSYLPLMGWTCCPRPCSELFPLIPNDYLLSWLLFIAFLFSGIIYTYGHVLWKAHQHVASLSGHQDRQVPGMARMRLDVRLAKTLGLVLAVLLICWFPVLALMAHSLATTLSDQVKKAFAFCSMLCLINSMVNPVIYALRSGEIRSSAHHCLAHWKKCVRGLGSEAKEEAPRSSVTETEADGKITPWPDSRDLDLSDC

[3] = target: T2, hCB2; experiment: pERK AlphaLISA assay, HEK Flp-in hCB2 cells; assay type: cell-based; details: for Time of maximal pERK response: time course experiment
[4] = target: T2, hCB2; experiment: Comparison of efficacy/potency and operational-model bias analysis between hCB2 pathways, reference CP 55,940; assay type: cell-based
[5] = test system: HEK Flp-in wt cells; experiment: CAMYEL cAMP assay in HEK Flp-in wt cells (non-hCB2-mediated effects); assay type: cell-based, human; details: for Non-hCB2-mediated effects on cAMP (in words): HEK Flp-in wt
[6] = target: T2, hCB2; experiment: Real-time CAMYEL BRET cAMP assay, forskolin-stimulated HEK Flp-in hCB2 cells; assay type: cell-based
Method: Cellular cAMP levels were measured using a real-time BRET biosensor (CAMYEL) as previously described ([Cawston et al., 2013]). In brief, cells were seeded in 10 cm dishes one day prior to transfection. The medium was then replaced and cells transfected with 5 μg of pcDNA3L-His-CAMYEL (ATCC, Manassas, VA, United States) using linear PEI (MW 25 kDa; Polysciences, Warrington, PA, United States) with a DNA:PEI ratio of 1:6. Approximately 24 h after transfection, cells were trypsinised and re-plated in poly-D-lysine treated white 96-well plates (Corning), at a density of 5–6 × 10^4 cells per well. For experiments involving pertussis toxin (PTX; Sigma-Aldrich) pre-treatment, cells were seeded in half the usual volume of medium, and then ∼5 h later, 2× concentrated PTX or vehicle (50% glycerol, […] Tris–HCl pH 7.5, 10 mM glycine, 500 mM NaCl) were prepared in medium and added to the existing plating medium (giving rise to a final PTX concentration of 100 ng mL^-1). Approximately 24 h after plating (or 16–20 h after applying PTX/vehicle in experiments involving PTX treatment), cells were washed once with Hank’s Balanced Salt Solution (HBSS, Thermo Fisher Scientific, catalogue #14025-134), and then equilibrated for 30 min in HBSS supplemented with 1 mg mL^-1 BSA. Coelenterazine h (final concentration 5 μM; NanoLight Technologies, Pinetop, AZ, United States) was added to each well and incubated for 5 min. Forskolin was added (final concentration 5 μM) and incubated for 6 min (allowing enough time for the induced cAMP increase to plateau), prior to vehicle/drug addition. All drugs and reagents were prepared in HBSS supplemented with 1 mg mL^-1 BSA. SR 144528 was a generous gift from Roche (Basel, Switzerland).
Assays were carried out in technical duplicate. Emissions were detected at 460 nm (Rluc) and 535 nm (YFP) with either a LUMIstar® Omega luminometer (BMG Labtech, Ortenberg, Germany) or CLARIOstar® (BMG Labtech). BRET ratios (535 nm emissions/460 nm emissions, where an increase in ratio corresponds to a decrease in cAMP) were normalised to pre-forskolin reads (i.e., with coelenterazine h present) to remove any variability present prior to addition of forskolin and drug/vehicle. A Lowess curve (GraphPad Prism) was fitted to individual technical replicates within an assay so that cAMP signalling data could be extrapolated from any time point as opposed to only those that were empirically measured (typically every 30–60 s). Data were normalised to matched vehicle (0%) and forskolin (100%) treatments, allowing compilation of data from independent experiments.

[7] = target: T2, hCB2; experiment: Radioligand competition binding with [3H]-CP 55,940 on hCB2-expressing HEK membranes; details: for inhibition at 10 µM: 1 h, read-out: CB2 binding extent at 10 μM (%) (±SEM); for Reduction in hCB2 binding affinity compared to 15: compared to methylpiperazinyl-15; for hCB2 displacement of [3H]-CP 55,940 in 10 μM screen (in words): 10 μM heterologous competition screen, cut-off 60%
[8] = operational model transduction ratio
[9] = 10^ΔΔlogR, relative to CP 55,940
[10] = relative to reference ligand CP 55,940
[11] = 10 μM compound, displacement of 0.5 nM [3H]-CP 55,940

## CCOc1nc(NC23CC4CC(CC(C4)C2)C3)nc(N2CCN(CCOCCOCCNC(C)=O)CC2)n1 [Compound 14, N-(2-(2-(2-(4-(4-((Adamantan-1-yl)Amino)-6-Ethoxy-1,3,5-Triazin-2-yl)Piperazin-1-yl)Ethoxy)Ethoxy) Ethyl)Acetamide]
[1]
  CB1 binding extent at 10 μM (%) (±SEM): –18.8 (11.4) %
  CB2 selectivity over CB1 (in words): likely also CB2-selective
[2]
  EC50: 174 nM
[2]; [8]
  logR [log(τ/KA)] (±SEM) Internalisation: 6.81 (0.23)
[2]; read-out: Internalisation (1 h) Emax (±SEM)
  Emax: -61.8%
[3]
  EC50: 7410 nM
  Time of maximal pERK response: 4 min
[3]; [8]
  logR [log(τ/KA)] (±SEM) pERK: 5.16 (0.09)
[3]; read-out: pERK (4 min) Emax (±SEM)
  Emax: 4.66%
[4]; [9]
  Internalisation – pERK Bias factor: 8.6
  cAMP – internalisation Bias factor: 0.2
  cAMP – pERK Bias factor: 1.6
[4]; relative to CP 55,940
  Between-pathway signalling bias (in words): biased towards internalisation
[4]; [10]
  Internalisation – pERK ΔΔlogR (±SEM): 0.93 (0.13)**
  cAMP – internalisation ΔΔlogR (±SEM): –0.73 (0.25)*
  cAMP – pERK ΔΔlogR (±SEM): 0.20 (0.25)
[5]; HEK Flp-in wt versus HEK Flp-in hCB2
  Non-hCB2-mediated cAMP effects: fold less potent than cAMP inhibition in hCB2-expressing cells: ~5 fold
[6]
  EC50: 955 nM
[6]; 5 μM forskolin
  Behaviour in cAMP pathway (in words): partial agonists
[6]; [8]
  logR [log(τ/KA)] (±SEM) cAMP: 5.83 (0.23)
[6]; read-out: cAMP (5 min) Emax (±SEM)
  Emax: -29.8%
[7]
  Ki: 1780 nM
  inhibition at 10 µM: 76.2%
  Reduction in hCB2 binding affinity compared to 15: 2–3 log units

## CCOc1nc(NC23CC4CC(CC(C4)C2)C3)nc(N2CCN(CCOCCOCCN)CC2)n1 [Compound 13, N-(Adamantan-1-yl)-4-(4-(2-(2-(2-Aminoethoxy) Ethoxy)Ethyl)Piperazin-1-yl)-6-Ethoxy-1,3,5-Triazin-2-Amine]
[1]
  CB1 binding extent at 10 μM (%) (±SEM): 29.6 (7.6) %
  CB2 selectivity over CB1 (in words): likely also CB2-selective
[2]; 1 h stimulation
  Behaviour in internalisation pathway (in words): neutral antagonist
  Internalisation (1 h) pEC50 (±SEM): Not Measurable
[2]; read-out: Internalisation (1 h) Emax (±SEM), 1 h stimulation, change in surface hCB2 relative to vehicle-treated (100%), for 13 efficacy at 10 μM
  Emax at 10 µM: 6.2%
[3]; 4 min
  Behaviour in pERK pathway (in words): weak partial agonists
[3]; 4 min stimulation, 14 approximate (low potency), read-out: pERK (4 min) pEC50 (±SEM) (converted)
  EC50: 537 nM
[3]
  Time of maximal pERK response: 4 min
[5]
  Non-hCB2-mediated effects on cAMP (in words): did not exhibit any measurable non-hCB2-mediated effects
[6]; 5 μM forskolin
  Behaviour in cAMP pathway (in words): unconventional transient inverse agonist
  Time to maximum cAMP effect after drug addition: ~4 min
  Time to return to cAMP concentration induced by forskolin alone: 10 to 15 min
[6]; 5 min post-drug, 5 μM forskolin, 10 and 14 approximate (non-hCB2-mediated effects), read-out: cAMP (5 min) pEC50 (±SEM) (converted)
  EC50: 794 nM
[6]; PTX 100 ng mL-1 pre-treatment 16–20 h
  PTX sensitivity of cAMP signal (in words): completely PTX-sensitive
[7]; [11]
  inhibition at 10 µM: 81.1%
[7]
  Reduction in hCB2 binding affinity compared to 15: 2–3 log units
[7]; heterologous competition vs [3H]-CP 55,940, read-out: CB2 pKi (±SEM) (converted)
  Ki: 1820 nM

## CCOc1nc(NC23CC4CC(CC(C4)C2)C3)nc(N2CCN(CCCCCCNC(=O)OC(C)(C)C)CC2)n1 [Compound 9, tert-Butyl N-(6(4-(4-(Adamantan-1-yl)Amino)-6-Ethoxy-1,3,5-Triazin-2-yl)Piperazin-1-yl)Hexyl) Carbamate]
[7]
  hCB2 displacement of [3H]-CP 55,940 in 10 μM screen (in words): moderate binders
[7]; [11]
  inhibition at 10 µM: 51.9%

## SR 144528 [reference compound]
[5]
  Non-hCB2-mediated effects on cAMP (in words): did not exhibit any measurable non-hCB2-mediated effects
[6]
  PTX sensitivity of cAMP signal (in words): PTX-sensitive
  Time to maximum cAMP effect after drug addition: approximately 6 min
  cAMP (5 min) Emax (±SEM): 55.4%

## CCOc1nc(NC23CC4CC(CC(C4)C2)C3)nc(N2CCN(CCCCCCN)CC2)n1 [Compound 12, N-(Adamantan-1-yl)-4-(4-(6-Aminohexyl)Piperazin-1-yl)-6-Ethoxy-1,3,5-Triazin-2-Amine]
[7]
  hCB2 displacement of [3H]-CP 55,940 in 10 μM screen (in words): moderate binders
[7]; [11]
  inhibition at 10 µM: 43.5%

## CCOc1nc(NC2CCCC2)nc(N2CCN(CCCCCCN)CC2)n1 [Compound 5, 4-(4-(6-Aminohexyl)Piperazin-1-yl)-N-Cyclopentyl-6-Ethoxy-1,3,5-Triazin-2-Amine]
[7]
  hCB2 displacement of [3H]-CP 55,940 in 10 μM screen (in words): failed to displace, or barely displaced
[7]; [11]
  inhibition at 10 µM: 16.6%
